We go through two molecules from patent publication US8394852B2, “Inotilone derivatives as coherent biological response modifier (cBMR)” (Sami Labs Ltd, priority 2009, dated 2013).

One test relates to iNOS. As to conditions: cited from earlier work.
For test [1], the system named is COX-2. Particulars: through decreasing the enzyme activity of COX-2; cited from earlier work.
In test [2] the test system is nuclear factor-kappaB (NFkappaB). Particulars: cited from earlier work.
Test [3] relates to COX-2. Put plainly: LPS-induced COX-2 protein expression by Western blotting in RAW 264.7 cells. The test is classed as cell-based, murine. As to conditions: E coli LPS 100 ng/mL, co-treatment. Here is the method:
(§1) RAW 264.7 cells, derived from murine macrophage (American Type Culture Collection, MD, USA) were cultured in DMEM supplemented with 10% endotoxin-free, heat-inactivated fetal calf serum, 100 units/mL penicillin and 100 mcg/mL streptomycin, the culture media was changed to serum-free DMEM without phenol red on reaching cell density 2-3×10^6 cells/mL, and the cells activated by incubation in medium containing E coli LPS (100 ng/mL). Test compounds dissolved in dimethylsulfoxide were added together with the LPS. Cells treated with 0.05% DMSO acted as vehicle control.
(§2) The effects of test compounds on LPS-induced iNOS (inducible nitric oxide synthase) and COX-2 protein expressions were studied by Western blotting.
(In general: In western blotting, separated proteins are transferred to a membrane and probed.)

Test [4] deals with iNOS (inducible nitric oxide synthase). The test is described as follows: LPS-induced iNOS protein expression by Western blotting in RAW 264.7 cells. The test is classed as cell-based, murine. Particulars: E coli LPS 100 ng/mL, co-treatment. Here is the method: as §1, §2
Test [5] deals with PI3K/Akt and extracellular signal-regulated kinase 1/2 and p38 mitogen-activated protein kinase. Particulars: cited from earlier work.

For `CC1=CC(=O)/C(=C/c2ccc(O)c(O)c2)O1` [4a, Inotilone], in the test on iNOS, the “protein and mRNA expression of iNOS” value was “blocked protein and mRNA expression of iNOS”. For the same molecule, in the test on COX-2 [1], the “prostaglandin E(2) production” value is reported as “inhibited prostaglandin E(2) production”. For the same molecule, the “LPS-induced nuclear translocation of NFkappaB subunit and NFkappaB-dependent transcriptional activity” value in test [2] was “reduction of LPS-induced nuclear translocation of NFkappaB subunit and the NFkappaB-dependent transcriptional activity”. Moreover, in the test on COX-2 [3], the “effect on LPS-induced COX-2 protein expression” value was “but not of COX-2”. In addition, in test [4], the “effect on LPS-induced iNOS protein expression” value is given as “suppressed the induction of iNOS”. Moreover, the “LPS-induced activation of PI3K/Akt, ERK 1/2 and p38 MAPK” value in test [5] is “inhibited LPS-induced activation of PI3K/Akt and extracellular signal-regulated kinase 1/2 and p38 mitogen-activated protein kinase”.

For `COc1cc(/C=C2\OC(C)=CC2=O)ccc1O` [4b, 2-(4-Hydroxy-3-methoxy-benzylidene)-5-methyl-furan-3-one], the “effect on LPS-induced COX-2 protein expression” value with COX-2 [3] is on record as “slightly stimulated LPS-induced COX-2 expression”. In addition, the “effect on LPS-induced iNOS protein expression” value in test [4] is listed as “no effect on LPS induced iNOS protein expression”.
